The values below are quoted from earlier work in patent US11534424B2, “Compounds and methods for treatment of primary biliary cholangitis” (Arena Pharmaceuticals, Inc., priority 2017, dated 2022).

The conditions of data set [1]: chronic administration.
Data set [2] deals with collagen induced arthritis (CIA). To be noted: CIA rats.
Data set [3] concerns experimental autoimmune encephalomyelitis (EAE). To be noted: murine EAE, relative to vehicle.

As for `CCC/N=C1\S/C(=C\c2ccc(OC[C@H](O)CO)c(Cl)c2)C(=O)N1c1ccccc1C` [ponesimod], in data set [1], the liver enzyme elevation result was “liver enzyme elevation has been seen”.
With `CC(C)Oc1ccc(-c2nc(-c3cccc4c3CC[C@@H]4NCCO)no2)cc1C#N` [ozanimod], in data set [1], the liver enzyme elevation result is listed as “liver enzyme elevation has been seen”.
As for `CC(C)Oc1ncc(-c2nc(-c3cccc4c3ccn4CCCC(=O)O)no2)cc1Cl` [GSK2018682], the liver enzyme elevation result in data set [1] was “liver enzyme elevation has been seen”.
For the compound `O=C(O)C[C@H]1CCc2c1[nH]c1ccc(OCc3ccc(C4CCCC4)c(C(F)(F)F)c3)cc21` [Compound 1, (R)-2-(7-(4-cyclopentyl-3-(trifluoromethyl)benzyloxy)-1,2,3,4-tetrahydrocyclopenta[b]indol-3-yl)acetic acid], the “histological parameters in the knees and ankles” value in data set [2] is listed as “Improvement in histological parameters”. Also, in data set [3] (administered day 18 to day 37, similar to fingolimod), the “disease course, therapeutic administration” value was “reverse the disease relative to vehicle”. The “onset and severity of disease, prophylactic administration” value in data set [3] (up to day 25) is “prevented the onset and severity of disease relative to vehicle up to day 25”.
Take `CCCCCCCCc1ccc(CCC(N)(CO)CO)cc1` [fingolimod]: in data set [1], the liver enzyme elevation result was “liver enzyme elevation has been seen”.
Take `CCc1cc(/C(C)=N/OCc2ccc(C3CCCCC3)c(C(F)(F)F)c2)ccc1CN1CC(C(=O)O)C1` [siponimod]: the liver enzyme elevation result in data set [1] is listed as “liver enzyme elevation has been seen”.
